Experimental data published in ChEMBL document CHEMBL4507257, “Data for DCP probe ABT-100” (2021).

Tests used:
[1] = molecular target: Dual serine/threonine and tyrosine protein kinase (Homo sapiens) (UniProt Q6XUX3); settings: Compound concentration 1000.0 nM
[2] = molecular target: Ribosomal protein S6 kinase alpha-2 (Homo sapiens) (UniProt Q15349); settings: Compound concentration 1000.0 nM
[3] = molecular target: Macrophage colony-stimulating factor 1 receptor (Homo sapiens) (UniProt P07333); settings: Compound concentration 1000.0 nM
[4] = molecular target: Proto-oncogene tyrosine-protein kinase receptor Ret (Homo sapiens) (UniProt P07949); settings: Compound concentration 1000.0 nM
[5] = tested on: Mast/stem cell growth factor receptor Kit (Homo sapiens), P10721 [A829P]; settings: Compound concentration 1000.0 nM
[6] = molecular target: Serine/threonine-protein kinase PLK3 (Homo sapiens) (UniProt Q9H4B4); settings: Compound concentration 1000.0 nM
[7] = molecular target: Ephrin type-B receptor 4 (Homo sapiens) (UniProt P54760); settings: Compound concentration 1000.0 nM
[8] = molecular target: 5-hydroxytryptamine receptor 1D (Homo sapiens) (UniProt P28221); settings: Compound concentration 10.0 uM
[9] = molecular target: Homeodomain-interacting protein kinase 2 (Homo sapiens, UniProt Q9H2X6); settings: Compound concentration 1000.0 nM
[10] = molecular target: 1-phosphatidylinositol 3-phosphate 5-kinase (Homo sapiens) (UniProt Q9Y2I7); settings: Compound concentration 1000.0 nM
[11] = molecular target: Tyrosine-protein kinase receptor TYRO3 (Homo sapiens) (UniProt Q06418); settings: Compound concentration 1000.0 nM
[12] = molecular target: Aurora kinase A (Homo sapiens) (UniProt O14965); settings: Compound concentration 1000.0 nM
[13] = molecular target: Serine/threonine-protein kinase Nek3 (Homo sapiens) (UniProt P51956); settings: Compound concentration 1000.0 nM
[14] = molecular target: Cyclin-G-associated kinase (Homo sapiens) (UniProt O14976); settings: Compound concentration 1000.0 nM
[15] = molecular target: Myosin light chain kinase, smooth muscle (Homo sapiens) (UniProt Q15746); settings: Compound concentration 1000.0 nM
[16] = molecular target: Serine/threonine-protein kinase TAO1 (Homo sapiens) (UniProt Q7L7X3); settings: Compound concentration 1000.0 nM
[17] = molecular target: Testis-specific serine/threonine-protein kinase 1 (Homo sapiens) (UniProt Q9BXA7); settings: Compound concentration 1000.0 nM
[18] = molecular target: Cyclin-dependent kinase 3 (Homo sapiens) (UniProt Q00526); settings: Compound concentration 1000.0 nM
[19] = molecular target: Casein kinase I isoform delta (Homo sapiens) (UniProt P48730); settings: Compound concentration 1000.0 nM
[20] = molecular target: Casein kinase I isoform epsilon (Homo sapiens) (UniProt P49674); settings: Compound concentration 1000.0 nM
[21] = molecular target: Vascular endothelial growth factor receptor 2 (Homo sapiens) (UniProt P35968); settings: Compound concentration 1000.0 nM
[22] = molecular target: 5-hydroxytryptamine receptor 7 (Homo sapiens) (UniProt P34969); settings: Compound concentration 10.0 uM
[23] = molecular target: Dual specificity mitogen-activated protein kinase kinase 6 (Homo sapiens) (UniProt P52564); settings: Compound concentration 1000.0 nM
[24] = molecular target: Activin receptor type-1B (Homo sapiens) (UniProt P36896); settings: Compound concentration 1000.0 nM
[25] = molecular target: Serine/threonine-protein kinase N1 (Homo sapiens) (UniProt Q16512); settings: Compound concentration 1000.0 nM
[26] = molecular target: Serine/threonine-protein kinase pim-1 (Homo sapiens) (UniProt P11309); settings: Compound concentration 1000.0 nM
[27] = molecular target: Serine/threonine-protein kinase TNNI3K (Homo sapiens) (UniProt Q59H18); settings: Compound concentration 1000.0 nM
[28] = molecular target: Serine/threonine-protein kinase ULK1 (Homo sapiens) (UniProt O75385); settings: Compound concentration 1000.0 nM
[29] = molecular target: Cytoplasmic tyrosine-protein kinase BMX (Homo sapiens) (UniProt P51813); settings: Compound concentration 1000.0 nM
[30] = molecular target: Cyclin-dependent kinase 4 (Homo sapiens) (UniProt P11802); settings: Compound concentration 1000.0 nM
[31] = tested on: Receptor-type tyrosine-protein kinase FLT3 (Homo sapiens), P36888 [K663Q]; settings: Compound concentration 1000.0 nM
[32] = molecular target: Serine/threonine-protein kinase SIK2 (Homo sapiens) (UniProt Q9H0K1); settings: Compound concentration 1000.0 nM
[33] = molecular target: Serine/threonine-protein kinase 3 (Homo sapiens) (UniProt Q13188); settings: Compound concentration 1000.0 nM
[34] = molecular target: Serine/threonine-protein kinase pim-2 (Homo sapiens) (UniProt Q9P1W9); settings: Compound concentration 1000.0 nM
[35] = molecular target: Phosphatidylinositol 3-kinase catalytic subunit type 3 (Homo sapiens) (UniProt Q8NEB9); settings: Compound concentration 1000.0 nM
[36] = molecular target: Serine/threonine-protein kinase MRCK gamma (Homo sapiens) (UniProt Q6DT37); settings: Compound concentration 1000.0 nM
[37] = molecular target: cAMP-dependent protein kinase catalytic subunit beta (Homo sapiens) (UniProt P22694); settings: Compound concentration 1000.0 nM
[38] = tested on: Fibroblast growth factor receptor 3 (Homo sapiens), P22607 [G697C]; settings: Compound concentration 1000.0 nM
[39] = molecular target: Alpha-2C adrenergic receptor (Homo sapiens) (UniProt P18825); settings: Compound concentration 10.0 uM
[40] = tested on: Mast/stem cell growth factor receptor Kit (Homo sapiens), P10721 [D816V]; settings: Compound concentration 1000.0 nM
[41] = molecular target: Rhodopsin kinase GRK1 (Homo sapiens) (UniProt Q15835); settings: Compound concentration 1000.0 nM
[42] = molecular target: Beta-3 adrenergic receptor (Homo sapiens) (UniProt P13945); settings: Compound concentration 10.0 uM
[43] = molecular target: Mitogen-activated protein kinase kinase kinase 4 (Homo sapiens) (UniProt Q9Y6R4); settings: Compound concentration 1000.0 nM
[44] = molecular target: Serine/threonine-protein kinase BRSK2 (Homo sapiens) (UniProt Q8IWQ3); settings: Compound concentration 1000.0 nM
[45] = molecular target: cAMP-dependent protein kinase catalytic subunit alpha (Homo sapiens) (UniProt P17612); settings: Compound concentration 1000.0 nM
[46] = molecular target: Tyrosine-protein kinase Yes (Homo sapiens) (UniProt P07947); settings: Compound concentration 1000.0 nM

Serine/threonine-protein kinase pim-1 (Homo sapiens), sequence (P11309 whole entry, looked up): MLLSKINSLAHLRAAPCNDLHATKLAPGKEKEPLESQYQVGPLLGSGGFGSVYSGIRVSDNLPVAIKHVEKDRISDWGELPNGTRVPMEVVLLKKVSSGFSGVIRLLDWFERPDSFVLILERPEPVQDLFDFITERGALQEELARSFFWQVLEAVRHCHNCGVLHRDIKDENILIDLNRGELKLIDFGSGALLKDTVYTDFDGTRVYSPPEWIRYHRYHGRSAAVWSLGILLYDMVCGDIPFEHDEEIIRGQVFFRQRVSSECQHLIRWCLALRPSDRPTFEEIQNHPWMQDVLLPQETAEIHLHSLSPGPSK
Serine/threonine-protein kinase pim-2 (Homo sapiens), sequence (Q9P1W9 whole entry, looked up): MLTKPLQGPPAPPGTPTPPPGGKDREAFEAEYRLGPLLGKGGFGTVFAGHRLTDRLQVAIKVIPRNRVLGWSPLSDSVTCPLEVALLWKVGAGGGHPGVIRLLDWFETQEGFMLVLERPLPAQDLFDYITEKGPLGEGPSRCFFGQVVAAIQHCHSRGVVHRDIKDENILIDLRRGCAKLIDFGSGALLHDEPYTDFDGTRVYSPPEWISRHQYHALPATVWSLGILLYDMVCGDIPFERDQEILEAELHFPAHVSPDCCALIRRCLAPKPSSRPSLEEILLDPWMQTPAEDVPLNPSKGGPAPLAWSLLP
Rhodopsin kinase GRK1 (Homo sapiens), sequence (Q15835 whole entry): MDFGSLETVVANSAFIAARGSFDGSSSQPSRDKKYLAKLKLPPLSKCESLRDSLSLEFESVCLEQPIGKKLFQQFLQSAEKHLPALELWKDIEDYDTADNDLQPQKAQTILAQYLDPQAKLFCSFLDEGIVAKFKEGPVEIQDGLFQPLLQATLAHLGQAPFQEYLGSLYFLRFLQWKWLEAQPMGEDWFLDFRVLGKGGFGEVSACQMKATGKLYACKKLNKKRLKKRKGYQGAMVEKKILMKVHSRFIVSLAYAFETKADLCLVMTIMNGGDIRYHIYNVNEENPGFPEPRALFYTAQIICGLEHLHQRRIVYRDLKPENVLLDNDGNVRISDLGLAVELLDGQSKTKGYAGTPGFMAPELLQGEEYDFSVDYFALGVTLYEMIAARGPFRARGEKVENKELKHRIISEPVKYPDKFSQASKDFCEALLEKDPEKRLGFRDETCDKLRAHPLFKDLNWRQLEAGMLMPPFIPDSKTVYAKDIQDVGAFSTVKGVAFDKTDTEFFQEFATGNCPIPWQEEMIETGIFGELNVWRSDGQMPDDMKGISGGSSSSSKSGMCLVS
Phosphatidylinositol 3-kinase catalytic subunit type 3 (Homo sapiens), sequence (Q8NEB9 whole entry): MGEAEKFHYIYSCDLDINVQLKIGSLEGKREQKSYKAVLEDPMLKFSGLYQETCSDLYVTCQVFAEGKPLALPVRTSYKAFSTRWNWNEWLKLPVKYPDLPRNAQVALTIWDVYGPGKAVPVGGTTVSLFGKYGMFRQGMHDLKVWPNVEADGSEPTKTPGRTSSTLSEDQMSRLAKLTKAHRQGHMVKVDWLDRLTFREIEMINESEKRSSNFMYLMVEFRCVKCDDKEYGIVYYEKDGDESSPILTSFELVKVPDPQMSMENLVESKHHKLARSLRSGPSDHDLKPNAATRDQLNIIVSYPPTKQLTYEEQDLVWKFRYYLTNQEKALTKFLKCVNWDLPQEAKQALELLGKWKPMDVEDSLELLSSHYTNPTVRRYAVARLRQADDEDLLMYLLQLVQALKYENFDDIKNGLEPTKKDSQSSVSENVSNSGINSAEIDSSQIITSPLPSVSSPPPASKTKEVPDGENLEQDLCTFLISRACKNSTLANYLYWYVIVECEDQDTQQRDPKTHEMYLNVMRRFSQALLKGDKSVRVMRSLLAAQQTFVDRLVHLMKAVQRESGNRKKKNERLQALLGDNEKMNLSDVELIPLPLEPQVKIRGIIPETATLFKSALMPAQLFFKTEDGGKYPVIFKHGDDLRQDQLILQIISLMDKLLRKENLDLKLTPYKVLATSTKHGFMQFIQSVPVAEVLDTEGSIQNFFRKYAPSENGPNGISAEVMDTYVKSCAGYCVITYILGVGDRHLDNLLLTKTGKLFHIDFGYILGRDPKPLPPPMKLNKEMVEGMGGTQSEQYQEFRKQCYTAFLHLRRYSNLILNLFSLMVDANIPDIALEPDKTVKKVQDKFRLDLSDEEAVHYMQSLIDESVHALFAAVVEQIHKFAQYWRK
Aurora kinase A (Homo sapiens), sequence (O14965 whole entry): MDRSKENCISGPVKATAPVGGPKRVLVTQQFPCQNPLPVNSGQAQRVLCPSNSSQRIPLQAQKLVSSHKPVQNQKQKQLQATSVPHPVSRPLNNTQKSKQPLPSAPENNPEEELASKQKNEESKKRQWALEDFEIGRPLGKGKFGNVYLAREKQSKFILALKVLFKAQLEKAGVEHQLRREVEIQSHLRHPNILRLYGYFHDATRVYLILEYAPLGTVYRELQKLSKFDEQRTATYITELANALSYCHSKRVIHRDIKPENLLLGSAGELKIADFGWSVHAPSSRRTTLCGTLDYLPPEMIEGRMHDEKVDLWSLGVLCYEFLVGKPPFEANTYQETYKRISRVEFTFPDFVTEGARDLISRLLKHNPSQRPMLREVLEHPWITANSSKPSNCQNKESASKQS
5-hydroxytryptamine receptor 1D (Homo sapiens), sequence (P28221 whole entry): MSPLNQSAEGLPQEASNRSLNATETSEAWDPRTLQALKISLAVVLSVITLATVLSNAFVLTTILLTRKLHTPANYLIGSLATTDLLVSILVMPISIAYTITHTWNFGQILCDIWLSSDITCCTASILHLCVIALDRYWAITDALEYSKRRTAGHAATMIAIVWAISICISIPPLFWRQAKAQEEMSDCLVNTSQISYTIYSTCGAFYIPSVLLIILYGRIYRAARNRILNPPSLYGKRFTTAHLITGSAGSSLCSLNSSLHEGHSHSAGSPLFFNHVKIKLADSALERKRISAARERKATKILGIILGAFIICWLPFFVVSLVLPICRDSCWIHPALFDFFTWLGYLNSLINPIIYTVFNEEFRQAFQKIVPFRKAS
5-hydroxytryptamine receptor 7 (Homo sapiens), sequence (P34969 whole entry): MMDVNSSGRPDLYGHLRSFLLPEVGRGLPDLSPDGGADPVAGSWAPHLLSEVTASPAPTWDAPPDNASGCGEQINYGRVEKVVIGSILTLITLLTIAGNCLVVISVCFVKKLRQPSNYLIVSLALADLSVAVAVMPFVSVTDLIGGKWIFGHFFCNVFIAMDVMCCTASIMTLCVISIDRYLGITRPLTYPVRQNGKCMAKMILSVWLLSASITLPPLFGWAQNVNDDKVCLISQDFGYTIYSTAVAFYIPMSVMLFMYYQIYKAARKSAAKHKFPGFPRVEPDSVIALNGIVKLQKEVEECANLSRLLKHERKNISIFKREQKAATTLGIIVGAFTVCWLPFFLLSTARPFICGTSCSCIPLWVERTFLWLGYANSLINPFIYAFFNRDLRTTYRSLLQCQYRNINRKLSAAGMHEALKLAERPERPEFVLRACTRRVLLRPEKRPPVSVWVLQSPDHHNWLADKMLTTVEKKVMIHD
Serine/threonine-protein kinase N1 (Homo sapiens), sequence (Q16512 2-942 limits assumed): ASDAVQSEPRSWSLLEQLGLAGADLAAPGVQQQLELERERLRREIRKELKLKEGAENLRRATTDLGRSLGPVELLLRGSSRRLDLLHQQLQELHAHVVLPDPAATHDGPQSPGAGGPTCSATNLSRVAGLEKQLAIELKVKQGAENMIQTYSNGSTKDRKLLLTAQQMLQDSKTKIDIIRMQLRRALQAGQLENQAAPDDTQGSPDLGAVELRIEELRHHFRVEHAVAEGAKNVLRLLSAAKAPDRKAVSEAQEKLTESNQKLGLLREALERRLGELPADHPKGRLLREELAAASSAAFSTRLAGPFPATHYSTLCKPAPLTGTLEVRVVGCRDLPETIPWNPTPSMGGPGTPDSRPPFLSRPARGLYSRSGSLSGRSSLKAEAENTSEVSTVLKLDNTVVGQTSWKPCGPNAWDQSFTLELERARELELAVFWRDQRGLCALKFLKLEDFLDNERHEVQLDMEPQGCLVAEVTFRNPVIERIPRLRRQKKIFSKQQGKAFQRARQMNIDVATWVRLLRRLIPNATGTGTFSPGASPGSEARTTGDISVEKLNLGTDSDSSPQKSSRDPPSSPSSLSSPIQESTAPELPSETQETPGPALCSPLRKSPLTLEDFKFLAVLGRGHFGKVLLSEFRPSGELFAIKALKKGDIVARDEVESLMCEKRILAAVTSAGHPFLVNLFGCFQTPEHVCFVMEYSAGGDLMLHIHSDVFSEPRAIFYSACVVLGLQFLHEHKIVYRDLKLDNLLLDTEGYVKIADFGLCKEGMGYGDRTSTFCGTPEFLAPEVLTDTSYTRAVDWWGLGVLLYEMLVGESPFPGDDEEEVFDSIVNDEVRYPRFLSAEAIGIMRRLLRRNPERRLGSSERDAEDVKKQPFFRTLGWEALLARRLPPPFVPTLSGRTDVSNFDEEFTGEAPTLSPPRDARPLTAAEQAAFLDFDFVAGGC
Cyclin-dependent kinase 3 (Homo sapiens), sequence (Q00526 whole entry, looked up, canonical isoform): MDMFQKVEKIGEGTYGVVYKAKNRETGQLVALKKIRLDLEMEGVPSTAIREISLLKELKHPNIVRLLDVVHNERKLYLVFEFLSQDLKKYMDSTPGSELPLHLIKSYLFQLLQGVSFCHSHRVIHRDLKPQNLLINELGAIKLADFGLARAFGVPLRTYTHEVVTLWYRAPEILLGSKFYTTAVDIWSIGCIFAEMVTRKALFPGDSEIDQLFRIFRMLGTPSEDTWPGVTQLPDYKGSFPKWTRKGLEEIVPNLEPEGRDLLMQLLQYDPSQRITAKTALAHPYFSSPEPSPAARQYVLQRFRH
Casein kinase I isoform delta (Homo sapiens), sequence (P48730 whole entry, looked up, canonical isoform): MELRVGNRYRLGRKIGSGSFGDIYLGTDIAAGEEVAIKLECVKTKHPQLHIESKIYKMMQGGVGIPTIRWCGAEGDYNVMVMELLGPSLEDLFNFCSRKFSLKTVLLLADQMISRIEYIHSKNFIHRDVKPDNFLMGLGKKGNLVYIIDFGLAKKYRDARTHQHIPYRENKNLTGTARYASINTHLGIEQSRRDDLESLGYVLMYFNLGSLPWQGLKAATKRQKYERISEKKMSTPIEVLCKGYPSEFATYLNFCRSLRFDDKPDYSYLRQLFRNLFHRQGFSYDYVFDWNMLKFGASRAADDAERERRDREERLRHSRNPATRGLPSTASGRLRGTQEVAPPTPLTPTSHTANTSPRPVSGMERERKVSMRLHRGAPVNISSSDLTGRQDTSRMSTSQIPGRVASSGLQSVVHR

`Cn1cncc1[C@@](O)(COc1ccc(C#N)cc1-c1ccc(OC(F)(F)F)cc1)c1ccc(C#N)cc1` [A-108] showed a residual activity [1] of 100%, a residual activity [2] of 98% and a residual activity [3] of 85%. It also gave a residual activity [4] of 100%, a residual activity [5] of 100% and a residual activity [6] of 88%. For the same molecule, the residual activity [7] was 100%, the inhibition [8] was 6.65% and the residual activity [9] was 100%. For the same molecule, the residual activity [10] was 100%, the residual activity [11] was 100% and the residual activity [12] was 76%. It also gave a residual activity [13] of 87%, a residual activity [14] of 91% and a residual activity [15] of 99%. The residual activity [16] was 100%, the residual activity [17] was 70% and the residual activity [18] was 100%. For the same molecule, the residual activity [19] was 94%, the residual activity [20] was 100% and the residual activity [21] was 100%. It also gave an inhibition [22] of 15%, a residual activity [23] of 94% and a residual activity [24] of 100%. The residual activity [25] was 100%, the residual activity [26] was 100% and the residual activity [27] was 100%. The residual activity [28] was 95%, the residual activity [29] was 64% and the residual activity [30] was 93%. For the same molecule, the residual activity [31] was 64%, the residual activity [32] was 100% and the residual activity [33] was 95%. The residual activity [34] was 100%, the residual activity [35] was 100% and the residual activity [36] was 96%. The residual activity [37] was 100%, the residual activity [38] was 97% and the inhibition [39] was 8.51%. The residual activity [40] was 100%, the residual activity [41] was 100% and the inhibition [42] was -5.85%. For the same molecule, the residual activity [43] was 80%, the residual activity [44] was 100% and the residual activity [45] was 94%. The residual activity [46] was 100%.
With `Cn1cncc1[C@](O)(COc1ccc(C#N)cc1-c1ccc(OC(F)(F)F)cc1)c1ccc(C#N)cc1` [ABT-100] the residual activity [1] was 90%, the residual activity [2] was 85% and the residual activity [3] was 94%. For the same molecule, the residual activity [4] was 94%, the residual activity [5] was 79% and the residual activity [6] was 89%. For the same molecule, the residual activity [7] was 98%, the inhibition [8] was -0.932% and the residual activity [9] was 100%. For the same molecule, the residual activity [10] was 100%, the residual activity [11] was 61% and the residual activity [12] was 95%. It also gave a residual activity [13] of 96%, a residual activity [14] of 97% and a residual activity [15] of 88%. For the same molecule, the residual activity [16] was 87%, the residual activity [17] was 100% and the residual activity [18] was 71%. For the same molecule, the residual activity [19] was 100%, the residual activity [20] was 77% and the residual activity [21] was 96%. It also gave an inhibition [22] of 9.15%, a residual activity [23] of 76% and a residual activity [24] of 87%. For the same molecule, the residual activity [25] was 100%, the residual activity [26] was 96% and the residual activity [27] was 82%. It also gave a residual activity [28] of 100%, a residual activity [29] of 75% and a residual activity [30] of 100%. It also gave a residual activity [31] of 90%, a residual activity [32] of 95% and a residual activity [33] of 77%. For the same molecule, the residual activity [34] was 84%, the residual activity [35] was 91% and the residual activity [36] was 85%. For the same molecule, the residual activity [37] was 93%, the residual activity [38] was 60% and the inhibition [39] was 5%. It also gave a residual activity [40] of 85%, a residual activity [41] of 95% and an inhibition [42] of 32.9%. For the same molecule, the residual activity [43] was 90%, the residual activity [44] was 48% and the residual activity [45] was 81%. The residual activity [46] was 94%.
